Measured values taken from ChEMBL document CHEMBL1149968, “Synthesis and in vitro cytotoxicity of cis-dichloro[(2S,3R,4S)-2-aminomethyl-3,4-(O-isopropylidene)dihydroxy- or -3,4-dihydroxypyrrolidine]platinum(II)” (Bioorg Med Chem Lett, 1996).

Tests used:
[1] = tested on: L1210; assay: In vitro cytotoxicity against Cisplatin sensitive L1210/parent leukemia cell lines.; assay type: functional, cell-based, Mus musculus
[2] = tested on: SK-OV-3; assay: In vitro cytotoxicity against ovarian cancer SK-OV-3 cell lines; assay type: functional, cell-based, Homo sapiens
[3] = tested on: XF498; assay: In vitro cytotoxicity against CNS cancer XF 498 cell lines; assay type: functional, cell-based, Homo sapiens
[4] = tested on: A549; assay: In vitro cytotoxicity against lung cancer A 549 cell lines; assay type: functional, cell-based, Homo sapiens
[5] = tested on: L1210; assay: In vitro cytotoxicity against Cisplatin resistant L1210/CPR leukemia cell lines.; assay type: functional, cell-based, Mus musculus
[6] = Relative resistance calculated as the ratio of IC50 of resistant sublime to that of IC50 of parent cell line.; assay type: functional

Row | Substance | IC50 [1] [µM] | IC50 [2] [µM] | IC50 [3] [µM] | IC50 [4] [µM] | IC50 [5] [µM] | Relative resistance [6]
1 | CARBOPLATIN [listing 1 of 2 here] | 2 | 13.9 | 13.6 | 37.7 | 45.3 | 
2 | CARBOPLATIN [listing 2 of 2 here] |  |  |  |  |  | 22.7
3 | CISPLATIN [listing 1 of 2 here] |  |  | 2.9 | 3.2 | 3.4 | 
4 | CISPLATIN [listing 2 of 2 here] |  |  |  |  |  | 34
5 | cis-Dichloro[(2S,3R,4S)-2-aminomethyl-3,4-(O-isopropylidene)dihydrxypyrrolidine]platinum (II) [listing 1 of 2 here] | 0.3 | 7.8 | 6.2 | 10.9 | 1.6 | 
6 | cis-Dichloro[(2S,3R,4S)-2-aminomethyl-3,4-(O-isopropylidene)dihydrxypyrrolidine]platinum (II) [listing 2 of 2 here] |  |  |  |  |  | 5.3
7 | cis-Dichloro[(2S,3R,4S)-2-aminomethyl-3,4-dihydroxypyrrolidine]platinum (II) [listing 1 of 2 here] | 1.4 | 15.4 | 14.8 | 32.5 | 10.9 | 
8 | cis-Dichloro[(2S,3R,4S)-2-aminomethyl-3,4-dihydroxypyrrolidine]platinum (II) [listing 2 of 2 here] |  |  |  |  |  | 7.8
